Our source for the EC50 values is patent US9255085B2, “Carboxamide compounds and methods for using the same” (Rigel Pharmaceuticals, Inc., priority 2008, dated 2016).

The target of the assay is AMPK. In words: AMPK activation, enzyme-linked immunosorbent assay. In kind it is biochemical. Conditions: ELISA, Table 2. The method, then:
Compounds 1-13 were assayed for their ability to activate AMPK using an enzyme-linked immunosorbent assay.
Compounds 14-16 were assayed for their ability to activate AMPK using an enzyme-linked immunosorbent assay.
Compounds 17-18 were assayed for their ability to activate AMPK using an enzyme-linked immunosorbent assay.
Compounds 19-22 were assayed for their ability to activate AMPK using an enzyme-linked immunosorbent assay.
Compounds 23-26 were assayed for their ability to activate AMPK using an enzyme-linked immunosorbent assay.
Compounds 27-33 were assayed for their ability to activate AMPK using an enzyme-linked immunosorbent assay.
Compounds 34-42 were assayed for their ability to activate AMPK using an enzyme-linked immunosorbent assay.
Compound `CC(C)(C)OC(=O)N1CCC(NC(=O)c2nc3ccc(OC4CCN(c5ccc(C(F)(F)F)cc5)CC4)cc3o2)CC1` [Compound 1, tert-butyl 4-(6-(1-(4-(trifluoromethyl)phenyl)piperidin-4-yloxy)benzo[d]oxazole-2-carboxamido)piperidine-1-carboxylate] gave a concentration giving a half-maximal response (EC50) of less than 0.1 µM.

`N#Cc1ccc(CN2CCC(NC(=O)c3nc4ccc(OC5CCN(c6ccc(C(F)(F)F)cc6)CC5)cc4o3)CC2)cc1` [Compound 2, N-(1-(4-Cyanobenzyl)piperidin-4-yl)-6-(1-(4-(trifluoromethyl)phenyl)piperidin-4-yloxy)benzo[d]oxazole-2-carboxamide] displayed an EC50 of less than 0.1 µM. Regarding `O=C(NC1CCN(Cc2ccncc2)CC1)c1nc2ccc(OC3CCN(c4ccc(C(F)(F)F)cc4)CC3)cc2o1` [Compound 3, N-(1-(Pyridin-4-ylmethyl)piperidin-4-yl)-6-(1-(4-(trifluoromethyl)phenyl)piperidin-4-yloxy)benzo[d]oxazole-2-carboxamide], the EC50 was less than 0.1 µM. Under `O=C(NC1CCN(C(=O)c2ccc(F)cc2)CC1)c1nc2ccc(OC3CCN(c4ccc(C(F)(F)F)cc4)CC3)cc2o1` [Compound 4, N-(1-(4-Fluorobenzoyl)piperidin-4-yl)-6-(1-(4-(trifluoromethyl)phenyl)piperidin-4-yloxy)benzo[d]oxazole-2-carboxamide] stands less than 0.1 µM; under `O=C(NC1CCNCC1)c1nc2ccc(OC3CCN(c4ccc(C(F)(F)F)cc4)CC3)cc2o1` [Compound 5, N-(Piperidin-4-yl)-6-(1-(4-(trifluoromethyl)phenyl)piperidin-4-yloxy)benzo[d]oxazole-2-carboxamide], 10 to 100 µM; under `N#Cc1ccc(C(=O)N2CCC(NC(=O)c3nc4ccc(OC5CCN(c6ccc(C(F)(F)F)cc6)CC5)cc4o3)CC2)cc1` [Compound 6, N-(1-(4-Cyanobenzoyl)piperidin-4-yl)-6-(1-(4-(trifluoromethyl)phenyl)piperidin-4-yloxy)benzo[d]oxazole-2-carboxamide], less than 0.1 µM. Under `O=C(c1nc2ccc(OC3CCN(c4ccc(C(F)(F)F)cc4)CC3)cc2o1)N1CC2CC1CN2Cc1ccncc1` (centres unmarked) [Compound 8, (5-(pyridin-4-ylmethyl)-2,5-diazabicyclo[2.2.1]heptan-2-yl)(6-(1-(4-(trifluoromethyl)phenyl)piperidin-4-yloxy)benzo[d]oxazol-2-yl)methanone] stands 0.1 to 1 µM; under `NC(=O)c1ccc(CN2CC3CC2CN3C(=O)c2nc3ccc(OC4CCN(c5ccc(C(F)(F)F)cc5)CC4)cc3o2)cc1` (centres unmarked) [Compound 9, 4-((5-(6-(1-(4-(Trifluoromethyl)phenyl)piperidin-4-yloxy)benzo[d]oxazole-2-carbonyl)-2,5-diazabicyclo[2.2.1]heptan-2-yl)methyl)benzamide], 0.1 to 1 µM; under `N#Cc1ccc(CN2CC3CC2CN3C(=O)c2nc3ccc(OC4CCN(c5ccc(C(F)(F)F)cc5)CC4)cc3o2)cc1` (centres unmarked) [Compound 10, 4-((5-(6-(1-(4-(Trifluoromethyl)phenyl)piperidin-4-yloxy)benzo[d]oxazole-2-carbonyl)-2,5-diazabicyclo[2.2.1]heptan-2-yl)methyl)benzonitrile], 0.1 to 1 µM. In turn, `O=C(c1ccncc1)N1CC2CC1CN2C(=O)c1nc2ccc(OC3CCN(c4ccc(C(F)(F)F)cc4)CC3)cc2o1` (centres unmarked) [Compound 11, (5-Isonicotinoyl-2,5-diazabicyclo[2.2.1]heptan-2-yl)(6-(1-(4-(trifluoromethyl)phenyl)piperidin-4-yloxy)benzo[d]oxazol-2-yl)methanone] returned a concentration for a half-maximal effect (EC50) of 0.1 to 1 µM. Under `N#Cc1ccc(C(=O)N2CC3CC2CN3C(=O)c2nc3ccc(OC4CCN(c5ccc(C(F)(F)F)cc5)CC4)cc3o2)cc1` (centres unmarked) [Compound 12, 4-(5-(6-(1-(4-(trifluoromethyl)phenyl)piperidin-4-yloxy)benzo[d]oxazole-2-carbonyl)-2,5-diazabicyclo[2.2.1]heptane-2-carbonyl)benzonitrile] stands less than 0.1 µM.
